{"source": "the NIST ThermoML archive (doi:10.1016/j.jct.2013.11.013)", "key": {"[1]": {"conditions": "Crystal; for vapor or sublimation pressure: Calculated from knudsen effusion weight loss; for Normal melting temperature: DTA"}, "[2]": {"test": "molar enthalpy of vaporization or sublimation", "conditions": "298.15 K; Crystal; Static calorimetry"}, "[3]": {"test": "Molar enthalpy of transition or fusion", "conditions": "Crystal; DSC"}}, "note": "Where “and” joins values, the source holds several entries; their conditions need not be identical. Identical values can stand only once. Numbers after ± are expanded uncertainties.", "data": [{"smiles": "c1ccc2c(c1)Nc1ccccc1S2", "note": "[10H-phenothiazine]", "values": [{"measurement": "vapor or sublimation pressure", "setting": "[1]; 357.16 K", "value": "0.0001222 ± 1.3e-05 kPa and 0.000127 ± 1.3e-05 kPa and 0.0001245 ± 1.3e-05 kPa"}, {"measurement": "vapor or sublimation pressure", "setting": "[1]; 359.11 K", "value": "0.000157 ± 1.7e-05 kPa and 0.0001593 ± 1.7e-05 kPa and 0.000151 ± 1.6e-05 kPa"}, {"measurement": "vapor or sublimation pressure", "setting": "[1]; 361.09 K", "value": "0.0001862 ± 2e-05 kPa and 0.0001894 ± 2e-05 kPa"}, {"measurement": "vapor or sublimation pressure", "setting": "[1]; 363.16 K", "value": "0.0002302 ± 2.4e-05 kPa and 0.0002289 ± 2.4e-05 kPa and 0.0002278 ± 2.4e-05 kPa"}, {"measurement": "vapor or sublimation pressure", "setting": "[1]; 365.1 K", "value": "0.0002854 ± 3e-05 kPa and 0.0002713 ± 2.9e-05 kPa and 0.0002851 ± 3e-05 kPa"}, {"measurement": "vapor or sublimation pressure", "setting": "[1]; 367.08 K", "value": "0.0003408 ± 3.6e-05 kPa and 0.0003366 ± 3.6e-05 kPa and 0.0003279 ± 3.5e-05 kPa"}, {"measurement": "vapor or sublimation pressure", "setting": "[1]; 369.16 K", "value": "0.0004206 ± 4.5e-05 kPa and 0.0004159 ± 4.4e-05 kPa and 0.0004168 ± 4.4e-05 kPa"}, {"measurement": "vapor or sublimation pressure", "setting": "[1]; 371.1 K", "value": "0.0005122 ± 5.4e-05 kPa and 0.000496 ± 5.3e-05 kPa and 0.000513 ± 5.4e-05 kPa"}, {"measurement": "vapor or sublimation pressure", "setting": "[1]; 373.09 K", "value": "0.0006118 ± 6.5e-05 kPa and 0.0005996 ± 6.4e-05 kPa"}, {"measurement": "vapor or sublimation pressure", "setting": "[1]; 375.14 K", "value": "0.0007352 ± 7.8e-05 kPa and 0.0007169 ± 7.6e-05 kPa and 0.0007525 ± 8e-05 kPa"}, {"measurement": "vapor or sublimation pressure", "setting": "[1]; 377.11 K", "value": "0.0008924 ± 9.5e-05 kPa and 0.0008545 ± 9.1e-05 kPa and 0.0008994 ± 9.5e-05 kPa"}, {"measurement": "vapor or sublimation pressure", "setting": "[1]; 379.1 K", "value": "0.0009984 ± 0.00011 kPa and 0.0009874 ± 0.0001 kPa and 0.001053 ± 0.00013 kPa"}, {"measurement": "Normal melting temperature", "setting": "[1]", "value": "185.70 ± 0.39", "unit": "°C"}, {"measurement": "molar enthalpy", "setting": "[2]", "value": "24.69 ± 0.143", "unit": "kcal/mol"}, {"measurement": "Molar enthalpy of transition or fusion", "setting": "[3]", "value": "6.43 ± 0.143", "unit": "kcal/mol"}]}, {"smiles": "c1ccc2c(c1)Nc1ccccc1O2", "note": "[phenoxazine]", "values": [{"measurement": "vapor or sublimation pressure", "setting": "[1]; 333.18 K", "value": "9.52e-05 ± 1e-05 kPa and 9.41e-05 ± 1e-05 kPa and 9.09e-05 ± 9.6e-06 kPa"}, {"measurement": "vapor or sublimation pressure", "setting": "[1]; 335.2 K", "value": "0.0001178 ± 1.3e-05 kPa and 0.000118 ± 1.3e-05 kPa and 0.0001119 ± 1.2e-05 kPa"}, {"measurement": "vapor or sublimation pressure", "setting": "[1]; 337.1 K", "value": "0.0001463 ± 1.6e-05 kPa and 0.000143 ± 1.5e-05 kPa and 0.0001421 ± 1.5e-05 kPa"}, {"measurement": "vapor or sublimation pressure", "setting": "[1]; 339.17 K", "value": "0.0001789 ± 1.9e-05 kPa and 0.0001744 ± 1.8e-05 kPa and 0.0001819 ± 1.9e-05 kPa"}, {"measurement": "vapor or sublimation pressure", "setting": "[1]; 341.24 K", "value": "0.0002193 ± 2.3e-05 kPa and 0.0002141 ± 2.3e-05 kPa and 0.0002236 ± 2.4e-05 kPa"}, {"measurement": "vapor or sublimation pressure", "setting": "[1]; 343.14 K", "value": "0.0002773 ± 2.9e-05 kPa and 0.0002712 ± 2.9e-05 kPa and 0.0002629 ± 2.8e-05 kPa"}, {"measurement": "vapor or sublimation pressure", "setting": "[1]; 345.17 K", "value": "0.0003274 ± 3.5e-05 kPa and 0.0003216 ± 3.4e-05 kPa and 0.0003308 ± 3.5e-05 kPa"}, {"measurement": "vapor or sublimation pressure", "setting": "[1]; 347.19 K", "value": "0.0004072 ± 4.3e-05 kPa and 0.0003893 ± 4.1e-05 kPa and 0.0004049 ± 4.3e-05 kPa"}, {"measurement": "vapor or sublimation pressure", "setting": "[1]; 349.11 K", "value": "0.000488 ± 5.2e-05 kPa and 0.0004919 ± 5.2e-05 kPa and 0.0004776 ± 5.1e-05 kPa"}, {"measurement": "vapor or sublimation pressure", "setting": "[1]; 351.17 K", "value": "0.000606 ± 6.4e-05 kPa and 0.0005906 ± 6.3e-05 kPa and 0.0006233 ± 6.6e-05 kPa"}, {"measurement": "vapor or sublimation pressure", "setting": "[1]; 353.17 K", "value": "0.0007525 ± 8e-05 kPa and 0.000734 ± 7.8e-05 kPa and 0.0007159 ± 7.6e-05 kPa"}, {"measurement": "vapor or sublimation pressure", "setting": "[1]; 355.1 K", "value": "0.0008813 ± 9.3e-05 kPa and 0.0008967 ± 9.5e-05 kPa and 0.0008889 ± 9.4e-05 kPa"}, {"measurement": "vapor or sublimation pressure", "setting": "[1]; 357.1 K", "value": "0.001069 ± 0.00013 kPa and 0.001075 ± 0.00013 kPa and 0.001077 ± 0.00013 kPa"}, {"measurement": "Normal melting temperature", "setting": "[1]", "value": "157.58 ± 0.39", "unit": "°C"}, {"measurement": "molar enthalpy", "setting": "[2]", "value": "24.26 ± 0.191", "unit": "kcal/mol"}, {"measurement": "Molar enthalpy of transition or fusion", "setting": "[3]", "value": "5.14 ± 0.117", "unit": "kcal/mol"}]}]}
